The supplement of paper PMC10307832

Key:
Experiment in all cases: relative viability (nuclei count vs DMSO), 5 days (fraction); higher = more cells survive
A549 = system: A549
Procedure, shortened: (§1)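 Five library-drug doses in √10 steps were combined with a fixed anchor-drug dose, or a single drug was given alone, by pin tool to lung cancer cell lines in 1536-well plates the day after seeding. Nuclei were stained and counted after 5 days. Relative viability is the nuclei count in treated wells over that in vehicle wells, taken as the median of duplicate plates.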

Calu-6 = system: Calu-6
Procedure, shortened: as §1

EBC-1 = system: EBC-1
Procedure, shortened: as §1

EMC-BAC-2 = system: EMC-BAC-2
Procedure, shortened: as §1

HCC-366 = system: HCC-366
Procedure, shortened: as §1

HCC-78 = system: HCC-78
Procedure, shortened: as §1

IA-LM = system: IA-LM
Procedure, shortened: as §1

LCLC-97TM1 = system: LCLC-97TM1
Procedure, shortened: as §1

NCI-H1299 = system: NCI-H1299
Procedure, shortened: as §1

NCI-H1395 = system: NCI-H1395
Procedure, shortened: as §1

NCI-H1703 = system: NCI-H1703
Procedure, shortened: as §1

Structure (SMILES): Cc1cn(-c2cc(NC(=O)c3ccc(C)c(Nc4nccc(-c5cccnc5)n4)c3)cc(C(F)(F)F)c2)cn1 [Nilotinib] + C[C@]1(O)C[C@@H](c2nc(-c3ccc4ccc(-c5ccccc5)nc4c3)c3c(N)nccn32)C1 [Linsitinib] (partner 1 µM)
- relative viability (A549; first compound 0.001 µM): 0.778
- relative viability (A549; first compound 0.003162 µM): 0.582
- relative viability (A549; first compound 0.01 µM): 0.767
- relative viability (A549; first compound 0.03162 µM): 0.535
- relative viability (A549; first compound 0.1 µM): 0.286
- relative viability (Calu-6; first compound 0.001 µM): 0.819
- relative viability (Calu-6; first compound 0.003162 µM): 1.06
- relative viability (Calu-6; first compound 0.01 µM): 1.06
- relative viability (Calu-6; first compound 0.03162 µM): 0.809
- relative viability (Calu-6; first compound 0.1 µM): 0.828
- relative viability (EBC-1; first compound 0.001 µM): 0.81
- relative viability (EBC-1; first compound 0.003162 µM): 0.794
- relative viability (EBC-1; first compound 0.01 µM): 1.14
- relative viability (EBC-1; first compound 0.03162 µM): 0.791
- relative viability (EBC-1; first compound 0.1 µM): 0.66
- relative viability (EMC-BAC-2; first compound 0.001 µM): 0.812
- relative viability (EMC-BAC-2; first compound 0.003162 µM): 0.954
- relative viability (EMC-BAC-2; first compound 0.01 µM): 1.1
- relative viability (EMC-BAC-2; first compound 0.03162 µM): 0.66
- relative viability (EMC-BAC-2; first compound 0.1 µM): 0.839
- relative viability (HCC-366; first compound 0.001 µM): 0.577
- relative viability (HCC-366; first compound 0.003162 µM): 1.33
- relative viability (HCC-366; first compound 0.01 µM): 0.857
- relative viability (HCC-366; first compound 0.03162 µM): 0.64
- relative viability (HCC-366; first compound 0.1 µM): 0.472
- relative viability (HCC-78; first compound 0.001 µM): 0.582
- relative viability (HCC-78; first compound 0.003162 µM): 0.522
- relative viability (HCC-78; first compound 0.01 µM): 0.637
- relative viability (HCC-78; first compound 0.03162 µM): 0.612
- relative viability (HCC-78; first compound 0.1 µM): 0.604
- relative viability (IA-LM; first compound 0.001 µM): 0.382
- relative viability (IA-LM; first compound 0.003162 µM): 0.31
- relative viability (IA-LM; first compound 0.01 µM): 0.634
- relative viability (IA-LM; first compound 0.03162 µM): 0.346
- relative viability (IA-LM; first compound 0.1 µM): 0.216
- relative viability (LCLC-97TM1; first compound 0.001 µM): 0.198
- relative viability (LCLC-97TM1; first compound 0.003162 µM): 0.228
- relative viability (LCLC-97TM1; first compound 0.01 µM): 0.276
- relative viability (LCLC-97TM1; first compound 0.03162 µM): 0.245
- relative viability (LCLC-97TM1; first compound 0.1 µM): 0.247
- relative viability (NCI-H1299; first compound 0.001 µM): 0.91
- relative viability (NCI-H1299; first compound 0.003162 µM): 1.1
- relative viability (NCI-H1299; first compound 0.01 µM): 1.28
- relative viability (NCI-H1299; first compound 0.03162 µM): 0.957
- relative viability (NCI-H1299; first compound 0.1 µM): 0.762
- relative viability (NCI-H1395; first compound 0.001 µM): 1
- relative viability (NCI-H1395; first compound 0.003162 µM): 0.826
- relative viability (NCI-H1395; first compound 0.01 µM): 1.07
- relative viability (NCI-H1395; first compound 0.03162 µM): 0.86
- relative viability (NCI-H1395; first compound 0.1 µM): 0.759
- relative viability (NCI-H1703; first compound 0.001 µM): 0.637
- relative viability (NCI-H1703; first compound 0.003162 µM): 0.285
- relative viability (NCI-H1703; first compound 0.01 µM): 0.343
- relative viability (NCI-H1703; first compound 0.03162 µM): 0.218
- relative viability (NCI-H1703; first compound 0.1 µM): 0.136
